According to PubChem BioAssay AID553 (University of Pittsburgh Molecular Library Screening Center, 2006):
pIC50: −log10 of the molar value. Active and inactive are the calls of the source. The rule behind the calls is not given here.

Target: Dual specificity protein phosphatase 6 (Rattus norvegicus) (UniProt Q64346)
Assay: rat DUSP6 enzyme activity inhibition – biochemical, in vitro, hit/probe assessment, dose response (AID 553)
Details: recombinant MKP-3 phosphatase, fluorescence intensity

Sequence of Dual specificity protein phosphatase 6 (Rattus norvegicus) (Q64346 whole entry, looked up): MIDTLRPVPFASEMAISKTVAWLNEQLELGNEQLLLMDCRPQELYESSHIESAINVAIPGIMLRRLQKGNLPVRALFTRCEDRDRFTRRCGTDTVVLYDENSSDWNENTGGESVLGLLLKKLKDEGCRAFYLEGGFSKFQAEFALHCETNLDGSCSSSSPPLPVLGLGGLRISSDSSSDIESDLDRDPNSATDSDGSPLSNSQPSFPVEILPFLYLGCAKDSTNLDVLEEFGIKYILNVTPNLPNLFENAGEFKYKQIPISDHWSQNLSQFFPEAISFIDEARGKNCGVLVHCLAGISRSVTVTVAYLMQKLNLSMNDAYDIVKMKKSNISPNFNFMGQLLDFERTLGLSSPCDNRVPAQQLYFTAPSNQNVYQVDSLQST

| pIC50 | IC50 | Compound |
| --- | --- | --- |
| 4.74 | – | O=C1C(C2=C(O)c3ccccc3C2=O)=Nc2ccccc21 |
| – | > 50 µM (inactive) | CCOC(=O)c1ccc(NC2c3ncccc3C(=O)N2Cc2ccc(F)cc2)cc1 (configuration not stated) |
| – | > 50 µM (inactive) | Oc1ccc2ccccc2c1C=NC12CN3CCN(CN(C3)C1)C2 |
| – | > 50 µM (inactive) | O=C1c2cccnc2C(Nc2ccc(S(=O)(=O)N3CCCCCC3)cc2)N1Cc1ccccc1 (configuration not stated) |
| – | > 50 µM (inactive) | N#C/C(=C(/O)CSc1nnc(Cc2cccs2)n1C1CCCCC1)c1nc2ccccc2[nH]1 |
| – | > 50 µM (inactive) | COC(=O)C1=C(C)NC2=C(C(=O)c3ccccc32)C1c1ccc(-c2ccc(C(=O)O)cc2)o1 (configuration not stated) |
| – | > 50 µM (inactive) | CCSCCOC(=O)C1=C(C)NC2=C(C(=O)CCC2)C1c1coc2ccccc2c1=O (configuration not stated) |
